Experimental data as given in patent US12582628B2, “Methods for treating breast cancer” (Olatec Therapeutics, Inc., priority 2019, dated 2026).
Where two headings read alike, the source gives them in different places.

How the values were obtained:
4T1 TNBC = 4T1 TNBC orthotopic tumor model (tumor volume, survival); assay type: in vivo, mice (BALB/c)
Method: Tumor Model. Animal protocols were approved by the University of Colorado Health Sciences Center Animal Care and Use Committee. Female BALB/c mice, 6-8 weeks old (The Jackson Laboratory), were fed standard or dapansutrile (OLT1177®) diet (4), which was started on the day of 4T1 injection. 4T1 cells (2×10^5) were injected orthotopically into the mammary fat pad. Mice treated with dapansutrile were fed ad libidum with food pellets containing 7.5 g/kg dapansutrile, which started on the day of the 4T1 injection and continued for 15 days. Mice typically consume about 4 g of food per day, resulting in an approximate daily dose of 0 mg/kg/day for control groups and 1,000 mg/kg/day for the treatment groups. […] Control (“vehicle”) mice were fed with control food pellets without dapansutrile. Mice were sacrificed following 15 days after 4T1 injection.
(§1) Anti-PD-1 Combination Therapy. 4T1 cells were injected as described. After instillation of 4T1 cells, mice were started on dapansutrile (OLT1177®) diet or continued on standard diet as described and at day seven a neutralizing antibody against PD-1 (200 μg/mouse; BioXCell, West Lebanon, NH) was injected peritoneally. Mice were sacrificed following 15 days from the […] instillation.
as §1, with “Anti-IL-1α” for “Anti-PD-1”, “every three days” for “at day seven”, “anti-IL-1α” for “PD-1”, “XBioTech, Austin, TX)” for “BioXCell, West Lebanon, NH)”
4T1 TNBC mice were generated and fed a standard diet or a dapansutrile diet for 15 days. Tumors were measured on indicated days to generate a growth curve (FIG. 1C). Final tumor volume was taken following resection of the tumors (FIG. 1B).
To further assess the roles of IL-1α and IL-1β in driving 4T1 tumor progression, inventors treated mice with anti-IL-1α (200 μg/mouse), dapansutrile diet, and a combination of both. 4T1 TNBC mice were generated and fed a standard diet or a dapansutrile diet for 15 days. Mice were injected with anti-IL1α every 3 days as indicated. Subsequently, tumor volume was analyzed.
4T1 TNBC mice were generated and fed a standard diet or a dapansutrile diet for 15 days. Mice receiving a combination therapy were injected with anti-PD-1 on day 7 as indicated (FIG. 3A).

TSLP [1] = assay: Gene expression (qPCR) in primary 4T1 tumors: TSLP; assay type: in vivo, mice; conditions: dapansutrile diet vs vehicle (FIG. 2D)
Method: (§2) Gene Expression. RNA was then isolated using Trizol (Thermo Fisher Scientific) and synthesized in cDNA using SuperScript III First-Strand (Thermo Fisher Scientific). Quantitative PCR (qPCR) was performed on cDNA using Power SYBR Green PCR master mix (Thermo Fisher Scientific) on Biorad CFX96 Real time system. Gene expression was assessed for Tslp, Tslpr, and Pdcd-11L1 mRNAs as indicated using the following primers: […]
(§3) Tumor Model. Animal protocols were approved by the University of Colorado Health Sciences Center Animal Care and Use Committee. Female BALB/c mice, 6-8 weeks old (The Jackson Laboratory), were fed standard or dapansutrile (OLT1177®) diet (4), which was started on the day of 4T1 injection. 4T1 cells (2×10^5) were injected orthotopically into the mammary fat pad. […]
(§4) Previous studies on the tumor-myeloid cell interactions in triple-negative breast cancer indicate that tumor-derived IL-1α promotes infiltrating myeloid cells to secrete TSLP (thymic stromal lymphopoietin), which in turn is critical for tumor progression at both primary and distant metastatic sites (15). To further evaluate the effects of blocking NLRP3 in 4T1 tumor progression, inventors quantified gene expression of TSLP and its associated receptor TSLPR in primary 4T1 tumors as measured by relative mRNA expression. […]

TSLPR [2] = assay: Gene expression (qPCR) in primary 4T1 tumors: TSLPR; assay type: in vivo, mice; conditions: dapansutrile diet vs vehicle (FIG. 2E)
Method: as §2, §3, §4

TSLP [3] = assay: TSLP mRNA expression in IL-1α-stimulated MDA-468 cells; assay type: cell-based, human; conditions: IL-1α 20 ng/mL, dapansutrile 10 μM, 24 hours, vs control (FIG. 2F)
Method: (§5) Cell Lines. The mammary carcinoma cell lines 4T1, E0771, and MDA-468 were obtained from ATCC (Manassas, VA). Cells were cultured in DMEM supplemented with 10% FBS, 100 units/mL penicillin, 0.1 mg/ml streptomycin. Cells were maintained in a humidified 5% CO2 atmosphere at 37° C.
(§6) In vitro. Tumor cell lines were adhered overnight at a concentration of 200,000 per well. The following day human recombinant IL-1α or IL-1β (R&D Systems, Minneapolis, MN) were added with or without dapansutrile (OLT1177®) and incubated for 24 hours. Cells were then lysed using TRIzol reagent (Thermo Fisher Scientific, Waltham, MA).
(§7) Gene Expression. […] Quantitative PCR (qPCR) was performed on cDNA using Power SYBR Green PCR master mix (Thermo Fisher Scientific) on Biorad CFX96 Real time system. Gene expression was assessed for Tslp, Tslpr, and Pdcd-11L1 mRNAs as indicated using the following primers: […]
as §4

TSLPR [4] = assay: TSLPR mRNA expression in IL-1α-stimulated MDA-468 cells; assay type: cell-based, human; conditions: IL-1α 20 ng/mL, dapansutrile 10 μM, 24 hours, vs control (FIG. 2G)
Method: as §5, §6, §7, §4

PD-L1 [5] = assay: Gene expression (qPCR) in 4T1 tumors: PD-L1; assay type: in vivo, mice; conditions: dapansutrile diet vs standard diet (FIG. 3D)
Method: as §2
Tumor Model. Animal protocols were approved by the University of Colorado Health Sciences Center Animal Care and Use Committee. Female BALB/c mice, 6-8 weeks old (The Jackson Laboratory), were fed standard or dapansutrile (OLT1177®) diet (4), which was started on the day of 4T1 injection. 4T1 cells (2×10^5) were injected orthotopically into the mammary fat pad. Mice treated with dapansutrile were fed ad libidum with food pellets containing 7.5 g/kg dapansutrile, which started on the day of the 4T1 injection and continued for 15 days. Mice typically consume about 4 g of food per day, resulting in an approximate daily dose of 0 mg/kg/day for control groups and 1,000 mg/kg/day for the treatment groups. […] Control (“vehicle”) mice were fed with control food pellets without dapansutrile. Mice were sacrificed following 15 days after 4T1 injection. […]

PD-L1 [6] = assay: PD-L1 mRNA expression in IL-1α-stimulated E0771 cells; assay type: cell-based, murine; conditions: IL-1α 10 ng/mL, dapansutrile vs vehicle (FIG. 3E)
Method: as §5, §6, §2
In vitro analysis of the murine triple-negative breast cancer cell line E0771 was conducted to examine the effects of dapansutrile on PD-L1 expression levels following cell death signaling. IL-1α stimulation was used to simulate cell death signaling in the tumor-microenvironment. […]

IL-22 = assay: Splenocyte cytokine secretion (ELISA): IL-22; assay type: in vivo; conditions: splenocytes of 4T1 tumor-bearing mice, LPS 10 μg/mL, 72 hours, vs vehicle (FIG. 4B)
Method: (§8) Splenocyte Cytokine Secretion. 4T1 cells were injected as described. Spleens from tumor-bearing mice were processed for cell culture through mechanical dissociation. Cells suspended in RPMI supplemented with 10% FBS, 100 units/mL penicillin, 0.1 mg/ml streptomycin and were plated at 5.0e^5 and stimulated with 10 μg/mL LPS. After 72 hours, supernatants were removed and cytokines were measured via ELISA (R&D Systems, Minneapolis, MN).
(§9) In this Example, 4T1 TNBC mice were generated and fed a standard diet or a dapansutrile diet for 15 days.

IFNγ = assay: Splenocyte cytokine secretion (ELISA): IFNγ; assay type: in vivo; conditions: splenocytes of 4T1 tumor-bearing mice, LPS 10 μg/mL, 72 hours, vs vehicle (FIG. 4C)
Method: as §8, §9

[7] = humans treated orally at 1000 mg/day; cited from earlier work
[8] = mice, 7.5 g/kg dapansutrile in food (about 1,000 mg/kg/day); nearly the same as human level; cited from earlier work
[9] = orally administered to healthy subjects; cited from earlier work
NLRP3 inflammasome = NLRP3 inflammasome (Homo sapiens, UniProt Q96P20); conditions: cited from earlier work
Sequence of NLRP3 inflammasome (Q96P20 whole entry): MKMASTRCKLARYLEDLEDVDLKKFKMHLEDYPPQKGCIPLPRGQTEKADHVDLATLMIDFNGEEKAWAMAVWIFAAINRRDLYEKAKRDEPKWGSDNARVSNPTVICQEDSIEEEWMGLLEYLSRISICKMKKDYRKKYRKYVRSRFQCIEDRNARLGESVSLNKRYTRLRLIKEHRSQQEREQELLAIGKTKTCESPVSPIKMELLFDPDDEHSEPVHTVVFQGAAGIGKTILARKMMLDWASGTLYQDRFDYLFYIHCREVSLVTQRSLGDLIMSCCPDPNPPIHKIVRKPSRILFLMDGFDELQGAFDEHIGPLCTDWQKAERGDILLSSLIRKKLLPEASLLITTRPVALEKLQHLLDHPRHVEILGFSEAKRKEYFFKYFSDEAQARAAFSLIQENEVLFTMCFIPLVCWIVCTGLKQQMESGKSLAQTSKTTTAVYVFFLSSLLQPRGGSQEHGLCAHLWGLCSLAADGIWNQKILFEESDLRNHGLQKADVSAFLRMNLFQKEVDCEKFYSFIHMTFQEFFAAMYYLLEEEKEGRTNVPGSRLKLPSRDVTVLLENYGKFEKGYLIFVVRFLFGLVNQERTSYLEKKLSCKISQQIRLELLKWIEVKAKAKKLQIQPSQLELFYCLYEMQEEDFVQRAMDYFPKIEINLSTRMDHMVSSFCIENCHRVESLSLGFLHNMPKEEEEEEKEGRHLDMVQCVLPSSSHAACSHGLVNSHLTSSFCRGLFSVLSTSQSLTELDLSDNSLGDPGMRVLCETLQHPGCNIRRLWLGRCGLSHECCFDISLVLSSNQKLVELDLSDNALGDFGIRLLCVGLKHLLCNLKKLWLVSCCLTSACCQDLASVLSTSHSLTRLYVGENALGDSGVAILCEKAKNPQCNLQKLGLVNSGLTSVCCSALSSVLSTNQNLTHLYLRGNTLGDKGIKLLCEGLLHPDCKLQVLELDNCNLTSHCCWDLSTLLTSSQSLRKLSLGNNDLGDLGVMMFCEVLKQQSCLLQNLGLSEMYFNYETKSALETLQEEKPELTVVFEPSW

CS(=O)(=O)CCC#N [dapansutrile, 3-methanesulfonyl-propionitrile]
mice surviving beyond 30 days (4T1 TNBC; Example 1, 4T1 TNBC mice on dapansutrile diet): half
tumor volume (4T1 TNBC; Example 1, 4T1 TNBC mice, dapansutrile diet 15 days vs standard diet, after resection (FIG. 1B)): significantly decreased tumor volume
survival rates (4T1 TNBC; Example 1, 4T1 TNBC mice, dapansutrile diet vs standard diet (FIG. 1D, n=10)): significantly higher survival rates
tumor volumes (4T1 TNBC; Example 2, 4T1 TNBC mice, 15 days, dapansutrile diet and/or anti-IL-1α 200 μg/mouse every 3 days, vs vehicle (FIGS. 2B, 2C)): significantly reduced tumor volumes
tumor volume (4T1 TNBC; Example 3, 4T1 TNBC mice, day 15 after resection, dapansutrile diet and/or anti-PD-1 200 μg/mouse on day 7, vs vehicle (FIG. 3B)): significant tumor reduction
TSLP expression (relative mRNA) (TSLP [1]): significantly lower
TSLPR expression (relative mRNA) (TSLPR [2]): significantly lower
TSLP expression (relative mRNA) (TSLP [3]): significantly lower
TSLPR expression (relative mRNA) (TSLPR [4]): significantly lower
PD-L1 gene expression (relative mRNA) (PD-L1 [5]): significantly less
PD-L1 expression (relative mRNA) (PD-L1 [6]): markedly lower
IL-22 levels (IL-22): significantly reduced IL-22 levels
IFNγ levels (IFNγ): increased
blood level [7]: 40000 ng/mL
blood level [8]: ~40000 ng/mL
safety [9]: safe
NLRP3 inflammasome inhibition (NLRP3 inflammasome): selectively inhibit
